Assay results: patent US9181218B2, “Compounds for improved stem cell differentiation into hepatocytes” (Hoffmann-La Roche Inc., priority 2013, dated 2015)

Legend:
[1] = test system: Human iPSC-derived hepatocytes (iCell® Hepatocytes); test: Gene expression profiling of iCell Hepatocytes by microfluidic qRT-PCR; type: cell-based; conditions: multiple doses, FIG. 1
Description: Human iPSC-derived hepatocytes (iCell® Hepatocytes) were exposed to the compounds of formula I with the goal of identifying conditions that favor greater functionality that better models the adult organ. […] Gene expression changes were validated and confirmed in a secondary screen, and functional consequences were queried.
Fresh iCell® Hepatocytes (day 20-23) were plated and cultured according to iCell Hepatocytes Dissociation and Plating User's Guide at 60 k cells per well in 96 well BIO Collagen IV coated plates (BD Cat#354429) 4 Hours post plating Medium C was removed and replaced with a 1:50 Matrigel (Cat#354227) overlay in Medium D. We dosed the cells at 5 uM in Medium D and 1% DMSO 24 hours post plating. Day 3, media was removed and we dosed again at 5 uM. Day 4 we Harvested RNA.
Sample RNA was isolated using TaqMan® Gene Expression Cells-to-CT™ Kit (Life Technologies Cat#4387299) froze at −80 C at various time points post compound treatment. All samples were processed by microfluidic quantitative PCR using the Biomark Fluidigm 96.96 chips (BMK-M-96.96) and ABI Taqman probes. Normalization and model-based expression measurements were calculated using the Biogazelle qBASE and Genorm software. […] Expression values are calculated by the fold change over vehicle control. […]

[2] = test system: HBV; test: Infection of iCell Hepatocytes with HBV; type: cell-based, hepatitis B virus (HBV)
Description: Two hundred microliters of HBV-containing serum was applied onto a 10-50% Optiprep gradient in SW41 tubes. Samples were centrifuged at 100,000×g for 2 hr at 4 C. Five hundred microliters fractions were collected from the top; each fraction was analyzed for HBsAg (ELISA) and HBV DNA (TaqMan PCR). Fractions containing virus were stored at −80 C.
Fresh iCell® Hepatocytes (day 20-23) were plated and cultured according to iCell Hepatocytes Dissociation and Plating User's Guide at 60 k cells per well in 96 well BIO Collagen IV coated plates (BD Cat#354429) 4 Hours post plating Medium C was removed and replaced with a 1:50 Matrigel (Cat#354227) overlay in Medium D. Twenty four hours post plating, cells were treated with 1 uM of the compound of example 1 in Medium D containing 1% DMSO. Media containing fresh compound was replenished 2 days later. At day 4 post plating, cells were infected with HBV at MOI (multiplicity of infection) of 10. Briefly, purified virus was diluted in medium D containing the compound of example 1 and incubated with cells for 4-6 hr or overnight. After removal of virus inoculum, fresh media containing 1 uM of the compound of example 1 was added and cells were incubated for 14 days with a medium change every 2 days. Culture media were analyzed for secreted viral antigens (HBsAg, HBeAg) and HBV DNA.

[3] = Microarray analysis of iCell Hepatocytes treated with the compound of example 1; type: cell-based, Human; conditions: 2 HOUR
Description: iCell Hepatocytes treated with the compound of example 1 results in the up and down-regulation of a host of genes; including a kinetic effect on interferon-stimulated gene (ISGs) expression. See FIGS. 15-I and 15-II, 16-I and 16-II and 18 and Table 1.

Structure (SMILES): O=C(NCc1cccc(F)c1)c1cccc2nc(-c3c(NC[C@@H](O)c4ccccc4)cc[nH]c3=O)[nH]c12 [Example 1, 2-[4-((S)-2-hydroxy-2-phenyl-ethylamino)-2-oxo-1,2-dihydro-pyridin-3-yl]-3H-benzoimidazole-4-carboxylic acid 3-fluoro-benzylamide]
- expression of genes spanning hepatocyte function [1]: global increase of genes spanning hepatocyte function
- infection of the four major HBV genotypes ([2]; iCell hepatocytes treated with compound): support robust infection of all four major HBV genotypes
- infection with patient-derived vs cell culture-derived (HepG2.2.15) HBV ([2]; iCell hepatocytes treated with compound, FIG. 8): support infection of patient-derived, but not cell culture-derived, HBV
- cell susceptibility to HBV infection ([2]; iCell hepatocytes, FIG. 3): cell susceptibility to HBV infection that occurred in a dose-dependent manner
- need for compound presence to maintain robust viral infection ([2]; pre-treated 6 d vs pre-treated and during infection (throughout)): Continuous presence of the compound of example 1 is required
- ABCA9 Raw Est Fold Change [3]: −4.37
- PCP4 Raw Est Fold Change [3]: −2.44
